Laboratory results from article PMC3914206.

Assays:
Format in all cases: binding
panel of 442 kinases [1] = molecular target: T1, panel of 442 kinases (Homo sapiens, UniProt Q96SB4); conditions: kinase SRPK1; compound concentration 10 µM
T1 construct: purchased KINOMEscan
From the text: (§1) We assessed the selectivity of members of this scaffold using the KINOMEscan methodology across a near comprehensive panel of 442 kinases [[18,27]].

panel of 442 kinases [2] = molecular target: T2, panel of 442 kinases (Homo sapiens, UniProt Q13464); conditions: Compound Concentration 10 µM
T2 construct: purchased KINOMEscan
From the text: as §1

panel of 442 kinases [3] = molecular target: T3, panel of 442 kinases (Homo sapiens, UniProt P11802); conditions: Compound Concentration 10 µM
T3 construct: purchased KINOMEscan
From the text: as §1

panel of 442 kinases [4] = molecular target: T4, panel of 442 kinases (Homo sapiens, UniProt P42336, I800L); conditions: Compound Concentration 10 µM
T4 construct: purchased KINOMEscan
From the text: as §1

T4 sequence (P42336 whole entry I800L): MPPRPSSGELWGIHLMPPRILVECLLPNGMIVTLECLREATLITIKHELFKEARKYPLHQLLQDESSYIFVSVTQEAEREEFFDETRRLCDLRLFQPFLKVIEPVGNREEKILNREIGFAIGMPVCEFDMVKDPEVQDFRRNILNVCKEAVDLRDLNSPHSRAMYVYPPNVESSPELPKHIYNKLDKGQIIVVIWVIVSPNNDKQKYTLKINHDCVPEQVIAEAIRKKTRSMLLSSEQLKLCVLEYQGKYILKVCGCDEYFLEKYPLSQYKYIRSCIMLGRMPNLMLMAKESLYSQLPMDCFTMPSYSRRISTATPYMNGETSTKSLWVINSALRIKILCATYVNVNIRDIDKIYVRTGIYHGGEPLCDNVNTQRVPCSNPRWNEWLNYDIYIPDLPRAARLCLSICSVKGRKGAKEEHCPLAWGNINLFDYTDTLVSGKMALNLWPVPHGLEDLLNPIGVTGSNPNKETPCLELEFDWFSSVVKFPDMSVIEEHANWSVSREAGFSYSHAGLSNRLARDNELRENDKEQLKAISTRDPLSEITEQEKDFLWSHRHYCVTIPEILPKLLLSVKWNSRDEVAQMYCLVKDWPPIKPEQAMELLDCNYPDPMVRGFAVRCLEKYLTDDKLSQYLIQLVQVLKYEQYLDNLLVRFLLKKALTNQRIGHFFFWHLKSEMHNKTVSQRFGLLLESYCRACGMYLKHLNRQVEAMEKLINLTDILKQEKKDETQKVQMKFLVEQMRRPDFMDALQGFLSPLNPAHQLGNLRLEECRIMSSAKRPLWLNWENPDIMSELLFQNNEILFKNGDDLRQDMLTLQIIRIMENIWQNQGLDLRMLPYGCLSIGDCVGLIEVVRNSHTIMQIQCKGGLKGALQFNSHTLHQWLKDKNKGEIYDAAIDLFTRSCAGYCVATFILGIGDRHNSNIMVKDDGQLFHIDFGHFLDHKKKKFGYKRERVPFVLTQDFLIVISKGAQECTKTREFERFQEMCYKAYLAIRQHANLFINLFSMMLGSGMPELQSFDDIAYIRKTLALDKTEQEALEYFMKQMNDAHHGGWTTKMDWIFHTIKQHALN
T2 sequence (Q13464 whole entry): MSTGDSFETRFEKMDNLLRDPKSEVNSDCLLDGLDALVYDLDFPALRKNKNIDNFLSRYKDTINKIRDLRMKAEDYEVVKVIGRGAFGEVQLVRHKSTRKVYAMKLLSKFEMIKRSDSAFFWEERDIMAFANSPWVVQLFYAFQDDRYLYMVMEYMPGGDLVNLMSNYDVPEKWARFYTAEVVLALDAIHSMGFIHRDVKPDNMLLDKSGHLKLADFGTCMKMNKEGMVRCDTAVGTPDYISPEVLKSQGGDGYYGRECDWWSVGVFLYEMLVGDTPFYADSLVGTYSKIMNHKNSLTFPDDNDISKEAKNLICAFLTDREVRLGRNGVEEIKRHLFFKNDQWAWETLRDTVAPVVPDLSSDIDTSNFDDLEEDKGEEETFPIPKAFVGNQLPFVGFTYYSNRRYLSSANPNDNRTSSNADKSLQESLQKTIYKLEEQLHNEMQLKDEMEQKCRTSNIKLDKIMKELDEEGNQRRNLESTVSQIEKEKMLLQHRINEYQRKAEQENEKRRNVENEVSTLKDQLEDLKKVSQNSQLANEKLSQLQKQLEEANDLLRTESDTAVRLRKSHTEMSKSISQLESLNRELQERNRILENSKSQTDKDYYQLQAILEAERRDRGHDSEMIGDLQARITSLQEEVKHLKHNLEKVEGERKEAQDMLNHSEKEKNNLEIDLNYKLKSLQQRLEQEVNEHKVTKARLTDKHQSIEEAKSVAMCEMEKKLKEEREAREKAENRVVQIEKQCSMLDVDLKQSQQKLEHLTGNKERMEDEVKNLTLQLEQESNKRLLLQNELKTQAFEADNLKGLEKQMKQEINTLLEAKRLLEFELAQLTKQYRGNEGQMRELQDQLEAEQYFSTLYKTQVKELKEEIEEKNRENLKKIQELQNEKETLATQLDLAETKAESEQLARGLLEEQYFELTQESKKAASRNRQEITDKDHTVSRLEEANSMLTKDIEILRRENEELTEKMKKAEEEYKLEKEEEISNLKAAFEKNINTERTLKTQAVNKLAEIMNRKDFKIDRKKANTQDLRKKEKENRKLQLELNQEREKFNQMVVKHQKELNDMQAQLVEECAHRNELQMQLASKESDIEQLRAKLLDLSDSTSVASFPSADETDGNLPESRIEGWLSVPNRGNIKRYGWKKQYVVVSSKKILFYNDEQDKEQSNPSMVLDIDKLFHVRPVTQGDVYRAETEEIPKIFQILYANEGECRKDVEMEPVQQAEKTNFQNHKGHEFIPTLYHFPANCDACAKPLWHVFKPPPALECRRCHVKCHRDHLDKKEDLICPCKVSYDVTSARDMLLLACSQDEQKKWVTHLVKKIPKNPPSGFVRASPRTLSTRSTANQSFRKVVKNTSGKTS
T1 sequence (Q96SB4 whole entry): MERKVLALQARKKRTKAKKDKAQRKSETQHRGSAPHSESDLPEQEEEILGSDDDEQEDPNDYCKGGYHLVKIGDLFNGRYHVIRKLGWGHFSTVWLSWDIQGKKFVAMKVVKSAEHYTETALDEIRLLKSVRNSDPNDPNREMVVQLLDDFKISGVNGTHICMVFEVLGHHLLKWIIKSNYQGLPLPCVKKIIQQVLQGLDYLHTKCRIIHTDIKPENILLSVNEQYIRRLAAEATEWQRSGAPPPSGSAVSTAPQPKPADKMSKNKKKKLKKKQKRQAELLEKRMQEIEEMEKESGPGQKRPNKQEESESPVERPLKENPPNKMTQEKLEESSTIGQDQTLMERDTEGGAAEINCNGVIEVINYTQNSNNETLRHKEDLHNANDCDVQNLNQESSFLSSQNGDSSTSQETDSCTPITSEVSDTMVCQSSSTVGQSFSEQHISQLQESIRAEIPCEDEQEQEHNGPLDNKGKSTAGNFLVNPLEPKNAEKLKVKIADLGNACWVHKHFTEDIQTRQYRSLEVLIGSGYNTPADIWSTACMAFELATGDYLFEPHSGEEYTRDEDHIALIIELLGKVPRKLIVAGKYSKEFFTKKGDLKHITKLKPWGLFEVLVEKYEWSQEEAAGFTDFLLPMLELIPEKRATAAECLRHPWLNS
T3 sequence (P11802 whole entry): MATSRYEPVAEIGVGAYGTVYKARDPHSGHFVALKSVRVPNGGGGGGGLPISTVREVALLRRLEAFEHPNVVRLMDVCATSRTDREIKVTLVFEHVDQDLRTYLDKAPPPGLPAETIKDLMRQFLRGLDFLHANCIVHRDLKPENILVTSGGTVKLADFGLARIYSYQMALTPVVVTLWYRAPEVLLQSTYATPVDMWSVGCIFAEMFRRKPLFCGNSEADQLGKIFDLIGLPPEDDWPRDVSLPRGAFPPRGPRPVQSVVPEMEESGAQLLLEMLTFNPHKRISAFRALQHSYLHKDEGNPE

Compound | % Ctrl, SRPK1 (panel of 442 kinases [1]) | KINOMEscan: ROCK1 (panel of 442 kinases [2]) | KINOMEscan: CDK4-cyclinD1 (panel of 442 kinases [3]) | KINOMEscan: CDK4-cyclinD3 (panel of 442 kinases [3]) | KINOMEscan: PIK3CA(I800L) (panel of 442 kinases [4])
COc1cc(C(=O)N2CCC(N3CCN(C)CC3)CC2)ccc1Nc1ncc2c(n1)N(C)c1ccccc1C(=O)N2C [15 (LRRK2-IN-1)] | 94 % Ctrl | 100 | 100 | 100 | 38
COc1cc(C(=O)N2CCC(N3CCN(C)CC3)CC2)ccc1Nc1ncc2c(n1)N1CCc3cccc(c31)C(=O)N2C [Compound 24] | 74 % Ctrl | 64 | – | – | 64
COc1cc(C(=O)N2CCC(N3CCN(C)CC3)CC2)ccc1Nc1ncc2c(n1)N(C1CCCC1)c1ccccc1C(=O)N2C [Compound 25, 11-cyclopentyl-2-((2-methoxy-4-(4-(4-methylpiperazin-1-yl)piperidine-1-carbonyl)phenyl)amino)-5-methyl-5H-benzo[e]pyrimido[5,4-b][1,4]diazepin-6(11H)-one] | 90 % Ctrl | 74 | 100 | 73 | 100
CCOc1cc(C(=O)N2CCC(N3CCN(C)CC3)CC2)ccc1Nc1ncc2c(n1)N(C1CCCC1)c1ccccc1C(=O)N2C [Compound 26] | 100 % Ctrl | 77 | 91 | 100 | 75
